How the values were obtained:
[1] = target: Interleukin-1 receptor-associated kinase 1 (Homo sapiens) (UniProt P51617); experiment: Inhibition of IRAK1 (unknown origin) at 1 uM by mobility shift microfluidics platform based assay relative to control
[2] = target: Tyrosine-protein kinase receptor TYRO3 (Homo sapiens) (UniProt Q06418); experiment: Inhibition of TYRO3 (unknown origin) at 1 uM by mobility shift microfluidics platform based assay relative to control
[3] = target: RAC-alpha serine/threonine-protein kinase (Homo sapiens) (UniProt P31749); experiment: Inhibition of AKT1 (unknown origin) at 1 uM by mobility shift microfluidics platform based assay relative to control
[4] = target: Protein-tyrosine kinase 6 (Homo sapiens) (UniProt Q13882); experiment: Inhibition of BRK (unknown origin) at 1 uM by mobility shift microfluidics platform based assay relative to control
[5] = target: Mitogen-activated protein kinase 9 (Homo sapiens) (UniProt P45984); experiment: Inhibition of JNK2 (unknown origin) at 1 uM by mobility shift microfluidics platform based assay relative to control
[6] = target: Serine/threonine-protein kinase LATS2 (Homo sapiens) (UniProt Q9NRM7); experiment: Inhibition of LATS2 (unknown origin) at 1 uM by mobility shift microfluidics platform based assay relative to control
[7] = target: Serine/threonine-protein kinase pim-2 (Homo sapiens) (UniProt Q9P1W9); experiment: Inhibition of PIM2 (unknown origin) at 1 uM by mobility shift microfluidics platform based assay relative to control
Chain of Serine/threonine-protein kinase pim-2 (Homo sapiens) (Q9P1W9 whole entry, looked up): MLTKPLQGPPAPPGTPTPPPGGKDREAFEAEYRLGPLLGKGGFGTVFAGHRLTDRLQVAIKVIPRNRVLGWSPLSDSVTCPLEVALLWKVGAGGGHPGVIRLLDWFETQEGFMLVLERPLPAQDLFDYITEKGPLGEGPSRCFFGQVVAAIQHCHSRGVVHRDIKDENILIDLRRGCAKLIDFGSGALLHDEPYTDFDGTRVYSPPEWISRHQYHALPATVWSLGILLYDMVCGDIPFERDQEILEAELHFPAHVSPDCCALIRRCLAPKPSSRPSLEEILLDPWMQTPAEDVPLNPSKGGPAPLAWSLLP

[8] = target: Leukocyte tyrosine kinase receptor (Homo sapiens) (UniProt P29376); experiment: Inhibition of LTK (unknown origin) at 1 uM by mobility shift microfluidics platform based assay relative to control
[9] = target: Serine/threonine-protein kinase LATS1 (Homo sapiens) (UniProt O95835); experiment: Inhibition of LATS1 (unknown origin) at 1 uM by mobility shift microfluidics platform based assay relative to control
[10] = target: Receptor tyrosine-protein kinase erbB-2 (Homo sapiens) (UniProt P04626); experiment: Inhibition of ERB-B2 (unknown origin) at 1 uM by mobility shift microfluidics platform based assay relative to control
[11] = target: SRSF protein kinase 1 (Homo sapiens) (UniProt Q96SB4); experiment: Inhibition of SRPK1 (unknown origin) at 1 uM by mobility shift microfluidics platform based assay relative to control
[12] = target: Macrophage-stimulating protein receptor (Homo sapiens) (UniProt Q04912); experiment: Inhibition of RON (unknown origin) at 1 uM by mobility shift microfluidics platform based assay relative to control
Chain of Macrophage-stimulating protein receptor (Homo sapiens) (Q04912 25-304 limits assumed): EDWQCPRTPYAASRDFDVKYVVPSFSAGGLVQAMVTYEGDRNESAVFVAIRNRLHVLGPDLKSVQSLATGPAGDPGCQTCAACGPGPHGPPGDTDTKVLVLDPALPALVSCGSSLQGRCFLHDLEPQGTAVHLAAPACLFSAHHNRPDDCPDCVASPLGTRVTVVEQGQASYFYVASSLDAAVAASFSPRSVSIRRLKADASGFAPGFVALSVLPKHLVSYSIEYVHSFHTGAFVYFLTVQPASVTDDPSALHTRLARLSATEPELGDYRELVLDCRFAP
Chain of Macrophage-stimulating protein receptor (Homo sapiens) (Q04912 310-1400 limits assumed): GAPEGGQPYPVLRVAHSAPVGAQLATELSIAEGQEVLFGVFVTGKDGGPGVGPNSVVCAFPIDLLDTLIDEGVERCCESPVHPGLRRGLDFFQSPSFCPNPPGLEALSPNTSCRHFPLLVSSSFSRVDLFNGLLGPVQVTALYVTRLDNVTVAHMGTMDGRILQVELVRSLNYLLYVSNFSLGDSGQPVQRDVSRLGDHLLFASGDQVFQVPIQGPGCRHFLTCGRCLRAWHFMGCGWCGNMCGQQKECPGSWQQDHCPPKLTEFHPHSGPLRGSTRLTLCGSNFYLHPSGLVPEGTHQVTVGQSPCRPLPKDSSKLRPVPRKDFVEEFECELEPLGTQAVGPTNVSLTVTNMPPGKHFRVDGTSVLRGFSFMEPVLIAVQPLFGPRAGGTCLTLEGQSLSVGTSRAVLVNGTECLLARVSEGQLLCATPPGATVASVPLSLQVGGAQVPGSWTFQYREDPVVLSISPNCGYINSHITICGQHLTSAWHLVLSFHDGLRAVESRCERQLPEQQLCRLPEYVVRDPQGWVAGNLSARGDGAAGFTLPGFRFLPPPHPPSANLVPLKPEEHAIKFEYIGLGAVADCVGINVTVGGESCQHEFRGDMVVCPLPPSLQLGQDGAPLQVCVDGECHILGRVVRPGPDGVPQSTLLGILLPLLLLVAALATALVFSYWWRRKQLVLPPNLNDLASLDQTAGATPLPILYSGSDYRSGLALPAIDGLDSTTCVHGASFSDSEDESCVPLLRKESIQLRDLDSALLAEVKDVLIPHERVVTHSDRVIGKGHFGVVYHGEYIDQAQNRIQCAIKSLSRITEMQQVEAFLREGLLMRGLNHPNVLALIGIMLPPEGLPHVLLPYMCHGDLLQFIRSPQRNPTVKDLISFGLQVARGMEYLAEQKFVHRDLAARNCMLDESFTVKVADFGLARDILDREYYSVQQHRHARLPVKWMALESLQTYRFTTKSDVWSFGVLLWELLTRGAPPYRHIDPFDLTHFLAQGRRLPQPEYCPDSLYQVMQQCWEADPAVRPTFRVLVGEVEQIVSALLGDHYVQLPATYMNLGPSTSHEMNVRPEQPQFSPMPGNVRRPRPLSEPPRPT

[13] = target: Serine/threonine-protein kinase Chk2 (Homo sapiens) (UniProt O96017); experiment: Inhibition of CHEK2 (unknown origin) at 1 uM by mobility shift microfluidics platform based assay relative to control
[14] = target: Epidermal growth factor receptor (Homo sapiens) (UniProt P00533); experiment: Inhibition of EGFR (unknown origin) at 1 uM by mobility shift microfluidics platform based assay relative to control
[15] = target: Rhodopsin kinase GRK7 (Homo sapiens) (UniProt Q8WTQ7); experiment: Inhibition of GRK7 (unknown origin) at 1 uM by mobility shift microfluidics platform based assay relative to control
[16] = target: Serine/threonine-protein kinase PAK 5 (Homo sapiens) (UniProt Q9P286); experiment: Inhibition of PAK5 (unknown origin) at 1 uM by mobility shift microfluidics platform based assay relative to control
Chain of Serine/threonine-protein kinase PAK 5 (Homo sapiens) (Q9P286 whole entry, looked up): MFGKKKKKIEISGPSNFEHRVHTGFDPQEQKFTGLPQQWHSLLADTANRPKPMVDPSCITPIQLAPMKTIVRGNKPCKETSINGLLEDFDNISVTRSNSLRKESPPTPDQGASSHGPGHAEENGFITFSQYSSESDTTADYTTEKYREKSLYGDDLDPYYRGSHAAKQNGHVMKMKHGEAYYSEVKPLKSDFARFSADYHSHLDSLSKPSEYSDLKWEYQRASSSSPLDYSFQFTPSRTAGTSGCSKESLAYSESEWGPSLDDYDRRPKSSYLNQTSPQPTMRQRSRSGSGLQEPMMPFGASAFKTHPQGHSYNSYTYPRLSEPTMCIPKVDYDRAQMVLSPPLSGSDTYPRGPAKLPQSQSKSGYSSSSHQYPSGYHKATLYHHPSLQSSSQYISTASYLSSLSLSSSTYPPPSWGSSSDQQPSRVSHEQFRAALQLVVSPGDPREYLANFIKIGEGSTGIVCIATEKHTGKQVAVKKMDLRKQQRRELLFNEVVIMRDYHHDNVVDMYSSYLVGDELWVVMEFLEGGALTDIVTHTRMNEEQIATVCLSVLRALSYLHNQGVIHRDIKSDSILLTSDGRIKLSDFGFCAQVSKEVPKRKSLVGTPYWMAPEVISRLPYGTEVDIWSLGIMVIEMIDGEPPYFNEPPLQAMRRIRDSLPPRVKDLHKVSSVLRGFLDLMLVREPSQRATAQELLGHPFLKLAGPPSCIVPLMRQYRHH

[17] = target: 3-phosphoinositide-dependent protein kinase 1 (Homo sapiens) (UniProt O15530); experiment: Inhibition of PDK1 (unknown origin) at 1 uM by mobility shift microfluidics platform based assay relative to control
[18] = target: Cyclin-dependent kinase 1 (Homo sapiens) (UniProt P06493); experiment: Inhibition of CDK1 (unknown origin) at 1 uM by mobility shift microfluidics platform based assay relative to control
Chain of Cyclin-dependent kinase 1 (Homo sapiens) (P06493 whole entry, looked up): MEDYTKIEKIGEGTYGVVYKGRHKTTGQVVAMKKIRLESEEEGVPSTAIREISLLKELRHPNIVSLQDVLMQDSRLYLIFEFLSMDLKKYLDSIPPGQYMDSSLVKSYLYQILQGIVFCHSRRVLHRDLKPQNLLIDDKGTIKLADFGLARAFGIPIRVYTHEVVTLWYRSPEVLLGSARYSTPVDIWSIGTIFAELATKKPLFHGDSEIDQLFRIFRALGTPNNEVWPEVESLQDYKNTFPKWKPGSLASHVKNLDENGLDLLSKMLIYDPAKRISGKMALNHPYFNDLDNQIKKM

[19] = target: Protein kinase C beta type (Homo sapiens) (UniProt P05771); experiment: Inhibition of PKC-beta1 (unknown origin) at 1 uM by mobility shift microfluidics platform based assay relative to control
[20] = target: Dual specificity tyrosine-phosphorylation-regulated kinase 1A (Homo sapiens) (UniProt Q13627); experiment: Inhibition of DYRK1A (unknown origin) at 1 uM by mobility shift microfluidics platform based assay relative to control
[21] = target: Receptor-type tyrosine-protein kinase FLT3 (Homo sapiens) (UniProt P36888); experiment: Inhibition of FLT3 (unknown origin) at 1 uM by mobility shift microfluidics platform based assay relative to control
[22] = target: Casein kinase I isoform epsilon (Homo sapiens) (UniProt P49674); experiment: Inhibition of CK1-epsilon (unknown origin) at 1 uM by mobility shift microfluidics platform based assay relative to control
[23] = target: Aurora kinase B (Homo sapiens) (UniProt Q96GD4); experiment: Inhibition of AURORA-B (unknown origin) at 1 uM by mobility shift microfluidics platform based assay relative to control
Chain of Aurora kinase B (Homo sapiens) (Q96GD4 whole entry): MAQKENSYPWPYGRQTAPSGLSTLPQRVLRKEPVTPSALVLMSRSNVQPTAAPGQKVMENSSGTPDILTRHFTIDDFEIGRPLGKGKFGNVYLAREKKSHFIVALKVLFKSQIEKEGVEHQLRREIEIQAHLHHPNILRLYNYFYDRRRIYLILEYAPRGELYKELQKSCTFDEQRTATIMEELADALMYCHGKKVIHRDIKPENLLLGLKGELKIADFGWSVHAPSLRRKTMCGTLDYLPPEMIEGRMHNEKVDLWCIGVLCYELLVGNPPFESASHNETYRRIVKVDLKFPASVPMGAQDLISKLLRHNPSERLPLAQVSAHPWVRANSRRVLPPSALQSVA

[24] = target: Mitogen-activated protein kinase 14 (Homo sapiens) (UniProt Q16539); experiment: Inhibition of P38-alpha (unknown origin) at 1 uM by mobility shift microfluidics platform based assay relative to control
[25] = target: Fibroblast growth factor receptor 3 (Homo sapiens) (UniProt P22607); experiment: Inhibition of FGFR3 (unknown origin) at 1 uM by mobility shift microfluidics platform based assay relative to control
[26] = target: Tyrosine-protein kinase Blk (Homo sapiens) (UniProt P51451); experiment: Inhibition of BLK (unknown origin) at 1 uM by mobility shift microfluidics platform based assay relative to control
Chain of Tyrosine-protein kinase Blk (Homo sapiens) (P51451 2-505 limits assumed): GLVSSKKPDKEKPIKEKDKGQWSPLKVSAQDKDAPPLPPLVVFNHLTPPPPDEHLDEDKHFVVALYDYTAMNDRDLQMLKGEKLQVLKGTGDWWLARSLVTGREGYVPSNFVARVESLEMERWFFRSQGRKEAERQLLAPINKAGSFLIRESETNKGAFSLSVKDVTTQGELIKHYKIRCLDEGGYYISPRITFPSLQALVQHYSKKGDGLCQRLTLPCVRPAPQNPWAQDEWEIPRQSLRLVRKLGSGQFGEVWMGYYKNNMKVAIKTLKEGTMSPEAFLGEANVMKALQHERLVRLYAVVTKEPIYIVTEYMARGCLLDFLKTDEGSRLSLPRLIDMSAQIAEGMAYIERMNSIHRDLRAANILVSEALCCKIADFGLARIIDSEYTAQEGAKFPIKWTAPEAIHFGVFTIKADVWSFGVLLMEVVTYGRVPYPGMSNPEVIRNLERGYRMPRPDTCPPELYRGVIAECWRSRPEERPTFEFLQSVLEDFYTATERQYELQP

[27] = target: Glycogen synthase kinase-3 alpha (Homo sapiens) (UniProt P49840); experiment: Inhibition of GSK-3-alpha (unknown origin) at 1 uM by mobility shift microfluidics platform based assay relative to control
Chain of Glycogen synthase kinase-3 alpha (Homo sapiens) (P49840 2-483 limits assumed): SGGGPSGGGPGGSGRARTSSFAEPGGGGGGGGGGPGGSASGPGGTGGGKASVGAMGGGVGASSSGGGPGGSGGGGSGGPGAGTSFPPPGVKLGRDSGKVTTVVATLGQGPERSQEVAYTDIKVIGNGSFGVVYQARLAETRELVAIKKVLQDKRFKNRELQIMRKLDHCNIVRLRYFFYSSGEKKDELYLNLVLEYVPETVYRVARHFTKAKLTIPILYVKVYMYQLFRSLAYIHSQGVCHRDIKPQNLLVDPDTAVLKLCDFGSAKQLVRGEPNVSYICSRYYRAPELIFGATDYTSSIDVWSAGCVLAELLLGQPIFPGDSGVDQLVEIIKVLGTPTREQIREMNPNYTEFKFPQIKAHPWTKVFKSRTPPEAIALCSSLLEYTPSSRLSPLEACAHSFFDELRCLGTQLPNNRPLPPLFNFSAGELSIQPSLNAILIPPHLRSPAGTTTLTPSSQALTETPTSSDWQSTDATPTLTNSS

[28] = target: Protein kinase C zeta type (Homo sapiens) (UniProt Q05513); experiment: Inhibition of PKC-zeta (unknown origin) at 1 uM by mobility shift microfluidics platform based assay relative to control
[29] = target: Phosphorylase b kinase gamma catalytic chain, liver/testis isoform (Homo sapiens) (UniProt P15735); experiment: Inhibition of PHK-gamma2 (unknown origin) at 1 uM by mobility shift microfluidics platform based assay relative to control
[30] = target: STE20-like serine/threonine-protein kinase (Homo sapiens) (UniProt Q9H2G2); experiment: Inhibition of SLK (unknown origin) at 1 uM by mobility shift microfluidics platform based assay relative to control
[31] = target: Serine/threonine-protein kinase PLK4 (Homo sapiens) (UniProt O00444); experiment: Inhibition of PLK4 (unknown origin) at 1 uM by mobility shift microfluidics platform based assay relative to control
Chain of Serine/threonine-protein kinase PLK4 (Homo sapiens) (O00444 whole entry): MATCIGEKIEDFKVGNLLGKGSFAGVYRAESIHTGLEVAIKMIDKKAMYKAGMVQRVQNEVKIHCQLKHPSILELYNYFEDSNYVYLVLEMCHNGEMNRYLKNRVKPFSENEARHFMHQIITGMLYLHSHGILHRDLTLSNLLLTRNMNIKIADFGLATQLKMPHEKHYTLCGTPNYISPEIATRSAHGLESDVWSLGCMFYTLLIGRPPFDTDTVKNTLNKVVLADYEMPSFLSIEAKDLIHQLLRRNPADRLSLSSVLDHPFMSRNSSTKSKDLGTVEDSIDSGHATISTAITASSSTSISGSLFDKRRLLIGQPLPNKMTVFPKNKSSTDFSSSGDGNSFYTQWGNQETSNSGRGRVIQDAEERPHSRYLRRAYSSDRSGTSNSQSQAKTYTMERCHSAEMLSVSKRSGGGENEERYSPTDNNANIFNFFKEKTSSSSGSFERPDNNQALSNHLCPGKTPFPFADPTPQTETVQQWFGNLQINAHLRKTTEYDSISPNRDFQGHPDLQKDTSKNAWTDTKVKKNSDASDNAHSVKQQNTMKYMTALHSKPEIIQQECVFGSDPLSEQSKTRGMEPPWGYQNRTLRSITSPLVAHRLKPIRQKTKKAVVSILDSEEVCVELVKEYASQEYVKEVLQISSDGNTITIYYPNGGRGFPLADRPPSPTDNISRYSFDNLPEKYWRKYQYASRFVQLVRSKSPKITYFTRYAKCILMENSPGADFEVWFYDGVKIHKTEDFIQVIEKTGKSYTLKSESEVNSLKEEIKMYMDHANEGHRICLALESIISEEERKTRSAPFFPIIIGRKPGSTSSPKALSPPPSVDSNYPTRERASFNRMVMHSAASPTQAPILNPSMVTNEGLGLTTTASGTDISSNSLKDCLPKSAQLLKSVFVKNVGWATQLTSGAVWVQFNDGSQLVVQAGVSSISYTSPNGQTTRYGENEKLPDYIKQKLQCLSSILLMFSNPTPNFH

[32] = target: Tyrosine-protein kinase ABL1 (Homo sapiens, UniProt P00519); experiment: Inhibition of ABL1 (unknown origin) at 1 uM by mobility shift microfluidics platform based assay relative to control
[33] = target: Focal adhesion kinase 1 (Homo sapiens) (UniProt Q05397); experiment: Inhibition of FAK (unknown origin) at 1 uM by mobility shift microfluidics platform based assay relative to control
[34] = target: Mitogen-activated protein kinase 10 (Homo sapiens) (UniProt P53779); experiment: Inhibition of JNK3 (unknown origin) at 1 uM by mobility shift microfluidics platform based assay relative to control

Row | inhibition [1] [%] | inhibition [2] [%] | inhibition [3] [%] | inhibition [4] [%] | inhibition [5] [%] | inhibition [6] [%] | inhibition [7] [%] | inhibition [8] [%] | inhibition [9] [%] | inhibition [10] [%] | inhibition [11] [%] | inhibition [12] [%] | inhibition [13] [%] | inhibition [14] [%] | inhibition [15] [%] | inhibition [16] [%] | inhibition [17] [%] | inhibition [18] [%] | inhibition [19] [%] | inhibition [20] [%] | SMILES | other results
1 | 28 | 67 | -1 | 97 | 26 | 0 | -1 | 4 | -4 | 58 | 1 | 2 | 3 | 55 | 1 | 0 | 4 | 6 | -3 | 2 | CC(C)n1nc(C#Cc2cccc(NC(=O)c3cccc(C(F)(F)F)c3)c2)c2c(N)ncnc21 | inhibition [21]: 29%; inhibition [22]: 27%; inhibition [23]: 82%; inhibition [24]: 70%; inhibition [25]: 52%; inhibition [26]: 95%; inhibition [27]: 5%; inhibition [28]: 2%; inhibition [29]: -8%; inhibition [30]: 92%; inhibition [31]: 74%; inhibition [32]: 98%; inhibition [33]: -8%; inhibition [34]: -8%
2 | -3 | 2 | 0 | 86 | 8 | -2 | 0 | 8 | 3 | 0 | 2 | 1 | -4 | 3 | 5 | -4 | 5 | 0 | 2 | 2 | CC(C)n1nc(C#Cc2cccc3cc(-c4cccc(C(F)(F)F)c4)ncc23)c2c(N)ncnc21 | inhibition [21]: 7%; inhibition [22]: 8%; inhibition [23]: 27%; inhibition [24]: 15%; inhibition [25]: 34%; inhibition [26]: 57%; inhibition [27]: 6%; inhibition [28]: 4%; inhibition [29]: 4%; inhibition [30]: 18%; inhibition [31]: 5%; inhibition [32]: 96%; inhibition [33]: 3%; inhibition [34]: 5%
